Measured values published in US8551958B2, “Galactosylated pro-drugs of non-steroidal anti-inflammatories with improved pharmacokinetic characteristics and reduced toxicity of the starting drug” (Stewart Italia Srl, priority 2008, dated 2013).

Experiments:
[1] = test system: mouse carrageenan paw oedema; assay: Carrageenan oedema test; assay type: in vivo, mice
Procedure: Anti-inflammatory activity was tested by means of the carrageenan oedema test. The mice were divided into groups of six. The initial volumes of the leg of all the animals were measured using a plethysmometer. The oedema is induced in the leg by means of sub-plantar injection of 50 μl of saline solution containing 1% of carrageenan. The volume of the leg was measured at different time intervals. Said experimental model consists of two phases: a first, acute, phase lasting 6 hours and a second, chronic, phase, up to 72 hours.
The anti-inflammatory activity of the physical mixture of ketorolac and galactose was evaluated with the carrageenan induced mice hind paw edema assay, as described for ketogal. […]
The carrageenan induced mice hind paw oedema assay described by D'Agostino et al. (2007) was used to evaluate the acute anti-inflammatory activity of the conjugate. Mice were divided into control and test groups of six animals each. Initial paw volumes of all animals were measured using a plethysmometer apparatus (Ugo Basile, Milan, Italy) before treatment. Paw oedema was induced by a subplantar injection of 50 μL of saline containing 1% λ-carrageenan into the right hind paw. […] free acid and ketogal were orally administrated 1 h before carrageenan challenge. Paw volume was measured at different time intervals by plethysmometer. The increase in paw volume was evaluated as the difference between the paw volume measured at each time point and the basal paw volume measured immediately before carrageenan injection.

male Swiss mice = assay: Chronic and sub-chronic experiments: liver, kidney and stomach examination; assay type: in vivo
Procedure: (§1) Animals were sacrificed and then liver, stomach and kidney were collected in glass tubes and analysed histologically and biochemically.
(§2) Liver samples were fixed in 10% buffered formalin and embedded in paraffin, sliced, and stained with hematoxylin & eosin (H&E) for assessment of liver pathology. […] To confirm histological data, western blot analysis for TNF-alpha, IL-6 and malonyldialdehyde assay were then performed in liver lysates.

[2] = Chemical stability of the pro-drug (phosphate buffer pH 7.4; HCl 0.1 N pH 1), HPLC; assay type: physicochemical; conditions: in the dark
Procedure: For the stability study, the solutions of pro-drug were prepared by dissolving an aliquot of Ketogal in a phosphate buffer at pH 7.4, or else in a solution of HCl 0.1 N (pH 1), as regards chemical stability, or else in a plasma specimen, for enzymatic stability. The solutions were kept in the dark, at a temperature of 37° C., for 24 hours. After each hour an aliquot of specimen was taken. In the case of plasma, said aliquot was previously extracted with acetonitrile (1:2), “vortexed” and centrifuged at 3000 r.p.m. for 10 min. The supernatant was taken and used for analysis at HPLC with diode detector. The half-lives for chemical stability and enzymatic stability were calculated by quantizing, in time, the percentage of pro-drug that remained in solution. For the chromatographic separations, a 1090L HPLC (Hewlett-Packard, Palo Alto, USA) was used, coupled to a diode detector HP 1040A. A Phenomenex Luna C18 (250×4.6 mm, 5 μm) column was used. The wavelength used was 313 nm. The mobile phase was constituted by acetonitrile and an aqueous solution of phosphoric acid […] (pH 3) in the ratio of 68:32. The flow was 1 mL/min, with an injection volume of 20 μl. All the reagents and the solvents used were of analytical degree. The distilled and deionized water was purified by means of a Milli Q system (Millipore). The retention times of the compounds were: ketorolac: 6.7 min; Ketogal: 3.8 min. As internal standard tolmetin was used (9.3 min). The straight line of calibration for quantification of the compounds was constructed using standard solutions with concentrations of between 0.1 and 100 μg/ml. The linearity was obtained with a coefficient of regression (R^2) of approximately 0.998.
For the study of the stability, the solutions of pro-drug were prepared by dissolving an aliquot of Flugal in a phosphate buffer at pH 7.4, as regards chemical stability, or else in a plasma specimen, for enzymatic stability. The solutions were kept in the dark, at a temperature of 37° C., for 24 hours. After each hour an aliquot of specimen was taken. In the case of the plasma said amount was previously extracted with acetonitrile (1:2), “vortexed”, and centrifuged at 3000 r.p.m. for 10 min. The supernatant was taken and used for analysis at HPLC with diode detector. The half-lives for the chemical stability and enzymatic stability were calculated by quantizing, in time, the percentage of pro-drug that remained in solution. A 1090L HPLC (Hewlett-Packard, Palo Alto, USA) coupled to a diode detector HP 1040A was used for the chromatographic separations. The column used was a Supelcosil LC-18, 250×4.6 mm, particle size […]. The volume injected was […] and the flow of 1 mL/min. The mobile phase was constituted by a mixture of aqueous CH3CN/H3PO4 1 mM (pH 3) [32:68]. For the quantitative determination reading was made at 250 nm. The retention times of the various compounds involved in the analysis were: for Flugal 6 min and for flurbiprofen 11 min. All the reagents and the solvents used were of analytical degree. The distilled and deionized water was purified by means of a Milli Q system (Millipore). The straight line of calibration for the quantification of the compounds was constructed using standard solutions with concentrations of between 0.1 and 100 μg/ml. Linearity was obtained with a coefficient of regression (R^2) of approximately 0.998. From the results of said analysis (illustrated in Table 3) it emerges that the pro-drug Flugal has a good chemical stability and a good susceptibility to enzymatic hydrolysis.
Chemical stability was assessed also at pH 1.0 in a solution of HCl 0.1N as described.
For the stability study, the solutions of pro-drug were prepared by dissolving an aliquot of Okigal in a phosphate buffer at pH 7.4, or else in a solution of HCl 0.1 N (pH 1), as regards chemical stability, or else in a plasma specimen, for enzymatic stability. The solutions were kept in the dark, at a temperature of 37° C., for 24 hours. […]

IL-6 = assay: Western blot in liver lysates, IL-6; assay type: in vivo, mice; conditions: ketogal 16.3 mg/Kg oral for 3, 5 and 7 days
Procedure: as §1, §2

COX-1 = assay: Western blot, stomach, COX-1 protein expression; assay type: in vivo, mice; conditions: ketorolac 10 mg/Kg, ketogal 16.3 mg/Kg, oral, 3, 5 and 7 days; versus control stomachs
Description: as §1

lipid peroxidation = assay: Malonyldialdehyde assay in liver lysates; assay type: in vivo, mice; conditions: ketogal 16.3 mg/Kg oral for 3, 5 and 7 days
Procedure: as §1, §2

PPAR-gamma = assay: Western blot, stomach, PPAR-gamma protein expression; assay type: in vivo, mice; conditions: ketorolac 10 mg/Kg, ketogal 16.3 mg/Kg, oral, 3, 5 and 7 days
Description: as §1

O=C(c1ccccc1)c1ccc2n1CC[C@@H]2C(=O)OCC1O[C@H](O)C(O)C(O)[C@H]1O (mixture of isomers) [Ketogal, ketorolac-D-galactos-6′-yl ester]
Anti-inflammatory activity compared with ketorolac ([1]; Ketogal 0.163 mg/kg versus ketorolac 0.1 mg/kg, oral and subcutaneous administration): better analgesic and anti-inflammatory activity than ketorolac | Oedema of the leg ([1]; Ketogal 0.163-16.3 mg/kg oral, 1 h prior to carrageenan): considerably reduces the oedema of the leg in a time-dependent and dose-dependent way | Formation of oedema, first phase ([1]; Ketogal 0.163-16.3 mg/kg oral, first, acute phase (6 hours)): all the doses tested inhibited formation of oedema | Effect on oedema, second phase ([1]; Ketogal oral, second, chronic phase up to 72 hours): continued also in the second phase | Liver histology (H&E) (male Swiss mice; ketogal 16.3 mg/Kg oral for 3, 5 and 7 days): normal liver histology | Hepatic inflammation and/or damage (biochemical analysis) (male Swiss mice; ketogal 16.3 mg/Kg oral for 3, 5 and 7 days, liver lysates): no hepatic inflammation and/or damage | Kidney histology (male Swiss mice; ketorolac 10 mg/Kg, ketogal 16.3 mg/Kg, oral, after 3, 5 and 7 days): normal kidney histology | Stomach samples, ulcerogenicity (male Swiss mice; ketorolac 10 mg/Kg, ketogal 16.3 mg/Kg, oral, for 3 days): undamaged and similar to control | pH 7.4 T½ ([2]; phosphate buffer at pH 7.4, 37° C.): >4 hours | pH 1 T½ ([2]; solution of HCl 0.1 N (pH 1), 37° C.): 2.1 hours | IL-6 level in liver (IL-6): no different compared to control mice | Gastric COX-1 protein expression (COX-1): not inhibited | Lipid peroxidation level in liver (malonyldialdehyde) (lipid peroxidation): no different compared to control mice | Gastric PPAR-gamma protein expression (PPAR-gamma): not inhibited
